These results are taken from patent publication US9624214B2, “Amino-substituted imidazo[1,2-a]pyridinecarboxamides and their use” (BAYER PHARMA AKTIENGESELLSCHAFT, priority 2012, dated 2017).

For the experiment, the target named is T1, recombinant guanylate cyclase reporter cell line (Rattus norvegicus, UniProt P19686+P20595).
T1 construct: expressed in transfected cells
T1 sequence (P20595 1-619): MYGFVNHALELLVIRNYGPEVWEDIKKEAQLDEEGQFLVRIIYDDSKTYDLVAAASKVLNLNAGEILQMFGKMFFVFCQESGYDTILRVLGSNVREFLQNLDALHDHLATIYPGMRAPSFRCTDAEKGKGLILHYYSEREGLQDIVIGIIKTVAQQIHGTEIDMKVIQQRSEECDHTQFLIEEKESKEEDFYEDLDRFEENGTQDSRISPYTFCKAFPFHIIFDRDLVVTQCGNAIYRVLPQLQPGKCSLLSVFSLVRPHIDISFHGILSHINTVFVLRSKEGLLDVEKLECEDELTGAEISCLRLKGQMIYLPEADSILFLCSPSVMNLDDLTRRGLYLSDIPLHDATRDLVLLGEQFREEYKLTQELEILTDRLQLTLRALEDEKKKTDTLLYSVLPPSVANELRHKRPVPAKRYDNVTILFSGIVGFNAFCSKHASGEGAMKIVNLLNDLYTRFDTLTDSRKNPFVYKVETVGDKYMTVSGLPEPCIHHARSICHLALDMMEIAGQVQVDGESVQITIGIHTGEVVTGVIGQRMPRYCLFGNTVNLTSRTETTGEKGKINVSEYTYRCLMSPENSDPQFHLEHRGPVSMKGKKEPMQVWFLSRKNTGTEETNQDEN
T1 sequence (P19686 1-690): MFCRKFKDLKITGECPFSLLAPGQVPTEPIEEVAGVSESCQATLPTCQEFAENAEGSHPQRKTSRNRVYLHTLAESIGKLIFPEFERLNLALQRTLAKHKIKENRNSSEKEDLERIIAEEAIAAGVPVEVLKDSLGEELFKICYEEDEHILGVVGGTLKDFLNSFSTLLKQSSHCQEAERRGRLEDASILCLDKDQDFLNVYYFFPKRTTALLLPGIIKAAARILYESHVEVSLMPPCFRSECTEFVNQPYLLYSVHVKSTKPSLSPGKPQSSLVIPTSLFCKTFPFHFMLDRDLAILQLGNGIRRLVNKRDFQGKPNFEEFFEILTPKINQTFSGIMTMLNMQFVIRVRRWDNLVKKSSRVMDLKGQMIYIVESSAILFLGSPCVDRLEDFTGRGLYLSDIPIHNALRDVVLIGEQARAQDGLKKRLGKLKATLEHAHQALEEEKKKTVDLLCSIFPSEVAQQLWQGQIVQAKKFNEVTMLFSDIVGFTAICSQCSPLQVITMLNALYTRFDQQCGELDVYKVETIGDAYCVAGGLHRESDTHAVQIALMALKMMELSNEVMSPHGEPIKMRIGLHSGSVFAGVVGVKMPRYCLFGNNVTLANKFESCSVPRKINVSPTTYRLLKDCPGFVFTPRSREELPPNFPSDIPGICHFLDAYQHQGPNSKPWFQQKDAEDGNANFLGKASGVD
Kind of experiment: B-2. Action on recombinant guanylate cyclase reporter cell line. It is filed as cell-based. Conditions: MEC = minimal effective concentration; in some cases mean values from individual determinations. A digest of the protocol: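 Each compound is applied to a cell line engineered with a reporter for recombinant guanylate cyclase. The minimal effective concentration is then noted, in part as a mean across separate determinations.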

Where a name gives a salt, the structure may show the parent alone.

`Cc1nc2c(OCc3c(F)cccc3F)cccn2c1C(=O)NC(C)[C@@H](C)N` (single isomer, unassigned) [Example 176]: the MEC was found to be 1.00 µM. With `Cc1nc2c(OCc3c(F)cccc3F)cccn2c1C(=O)NC(C)[C@@H](C)N` (single isomer, unassigned) [Example 177] the figure was 1.00 µM. Regarding `Cc1nc2c(OCC3CCCCC3)cccn2c1C(=O)NC(CN)c1ccc(F)c(F)c1` (single isomer, unassigned) [Example 178, ent-N-[2-Amino-1-(3,4-difluorophenyl)ethyl]-8-(cyclohexylmethoxy)-2-methylimidazo[1,2-a]-pyridine-3-carboxamide], the MEC is 0.30 µM.

As to `Cc1nc2c(OCC3CCCCC3)cccn2c1C(=O)NC(CN)c1ccc(F)c(F)c1` (single isomer, unassigned) [Example 179, ent-N-[2-Amino-1-(3,4-difluorophenyl)ethyl]-8-(cyclohexylmethoxy)-2-methylimidazo[1,2-a]-pyridine-3-carboxamide], the MEC was found to be 1.00 µM. With `Cc1nc2c(OCc3c(F)cccc3F)cccn2c1C(=O)NC12CNCCC1C2` (single isomer, unassigned) [Example 184, ent-N-(3-Azabicyclo[4.1.0]hept-1-yl)-8-[(2,6-difluorobenzyl)oxy]-2-methylimidazo[1,2-a]pyridine-3-carboxamide] the figure was 1.00 µM. With `Cc1nc2c(OCc3c(F)cccc3F)cccn2c1C(=O)NC12CNCCC1C2` (single isomer, unassigned) [Example 185, ent-N-(3-Azabicyclo[4.1.0]hept-1-yl)-8-[(2,6-difluorobenzyl)oxy]-2-methylimidazo[1,2-a]pyridine-3-carboxamide] the figure was 1.00 µM; with `Cc1nc2c(OCc3c(F)cccc3F)cc(Cl)cn2c1C(=O)NCC(N)CC(F)(F)F` (single isomer, unassigned) [Example 192, ent-N-(2-Amino-4,4,4-trifluorobutyl)-6-chloro-8-[(2,6-difluorobenzyl)oxy]-2-methylimidazo[1,2-a]pyridine-3-carboxamide], 0.30 µM. With `Cc1nc2c(OCc3c(F)cccc3F)cc(Cl)cn2c1C(=O)NCC(N)CC(F)(F)F` (single isomer, unassigned) [Example 193, ent-N-(2-Amino-4,4,4-trifluorobutyl)-6-chloro-8-[(2,6-difluorobenzyl)oxy]-2-methylimidazo[1,2-a]pyridine-3-carboxamide] the figure was 1.00 µM; with `CCC(C)(N)CNC(=O)c1c(C)nc2c(OCc3c(F)cccc3F)cc(Cl)cn12` (single isomer, unassigned) [Example 194, ent-N-(2-Amino-2-methylbutyl)-6-chloro-8-[(2,6-difluorobenzyl)oxy]-2-methylimidazo[1,2-a]-pyridine-3-carboxamide], 0.10 µM; with `CCC(C)(N)CNC(=O)c1c(C)nc2c(OCc3c(F)cccc3F)cc(Cl)cn12` (single isomer, unassigned) [Example 195, ent-N-(2-Amino-2-methylbutyl)-6-chloro-8-[(2,6-difluorobenzyl)oxy]-2-methylimidazo[1,2-a]-pyridine-3-carboxamide], 0.30 µM. Turning to `COCC(C)(N)CNC(=O)c1c(C)nc2c(OCc3c(F)cccc3F)cc(Cl)cn12` (single isomer, unassigned) [Example 196, ent-N-(2-Amino-3-methoxy-2-methylpropyl)-6-chloro-8-[(2,6-difluorobenzyl)oxy]-2-methylimidazo[1,2-a]pyridine-3-carboxamide], the MEC turned out to be 1.00 µM. With `COCC(C)(N)CNC(=O)c1c(C)nc2c(OCc3c(F)cccc3F)cc(Cl)cn12` (single isomer, unassigned) [Example 197, ent-N-(2-Amino-3-methoxy-2-methylpropyl)-6-chloro-8-[(2,6-difluorobenzyl)oxy]-2-methylimidazo[1,2-a]pyridine-3-carboxamide] the figure was 1.00 µM. With `COCC(C)(N)CNC(=O)c1c(C)nc2c(OCc3c(F)cccc3F)cc(C)cn12` (single isomer, unassigned) [Example 198, ent-N-(2-Amino-3-methoxy-2-methylpropyl)-8-[(2,6-difluorobenzyl)oxy]-2,6-dimethylimidazo-[1,2-a]pyridine-3-carboxamide] the figure was 0.30 µM; with `COCC(C)(N)CNC(=O)c1c(C)nc2c(OCc3c(F)cccc3F)cc(C)cn12` (single isomer, unassigned) [Example 199, ent-N-(2-Amino-3-methoxy-2-methylpropyl)-8-[(2,6-difluorobenzyl)oxy]-2,6-dimethylimidazo-[1,2-a]pyridine-3-carboxamide], 0.30 µM. With `CC[C@](C)(N)CNC(=O)c1c(C)nc2c(OCc3c(F)cccc3F)cc(C)cn12` (single isomer, unassigned) [Example 200] the figure was 0.04 µM. For the molecule `Cc1nc2c(OCc3c(F)cccc3F)cccn2c1C(=O)NCC(C)(N)CC(C)C` (single isomer, unassigned) [Example 203, ent-N-(2-Amino-2,4-dimethylpentyl)-8-[(2,6-difluorobenzyl)oxy]-2-methylimidazo[1,2-a]pyridine-3-carboxamide], the MEC worked out at 0.10 µM. With `Cc1nc2c(OCc3c(F)cccc3F)cccn2c1C(=O)NCC(C)(N)CC(C)C` (single isomer, unassigned) [Example 204, ent-N-(2-Amino-2,4-dimethylpentyl)-8-[(2,6-difluorobenzyl)oxy]-2-methylimidazo[1,2-a]pyridine-3-carboxamide] the figure was 1.00 µM.

As to `Cc1nc2c(OCc3c(F)cccc3F)cccn2c1C(=O)NCC(N)C(F)(F)F` (single isomer, unassigned) [Example 208, ent-N-(2-Amino-3,3,3-trifluoropropyl)-8-[(2,6-difluorobenzyl)oxy]-2-methylimidazo[1,2-a]-pyridine-3-carboxamide], the MEC came to 0.30 µM.

As to `Cc1nc2c(OCc3c(F)cccc3F)cccn2c1C(=O)NCC(N)C(F)(F)F` (single isomer, unassigned) [Example 209, ent-N-(2-Amino-3,3,3-trifluoropropyl)-8-[(2,6-difluorobenzyl)oxy]-2-methylimidazo[1,2-a]-pyridine-3-carboxamide], the MEC worked out at 0.30 µM.

For `COCC(CN)NC(=O)c1c(C)nc2c(OCc3c(F)cccc3F)cc(C)cn12` (single isomer, unassigned) [Example 210, ent-N-(1-amino-3-methoxypropan-2-yl)-8-[(2,6-difluorobenzyl)oxy]-2,6-dimethylimidazo[1,2-a]-pyridine-3-carboxamide Trifluoroacetate], the MEC worked out at 0.30 µM.

In the case of `Cc1nc2c(OCc3c(F)cccc3F)cc(Cl)cn2c1C(=O)NCC(N)C(C)C` (single isomer, unassigned) [Example 211, ent-N-(2-Amino-3-methylbutyl)-6-chloro-8-[(2,6-difluorobenzyl)oxy]-2-methylimidazo[1,2-a]-pyridine-3-carboxamide], the MEC was determined as 0.30 µM.

As to `Cc1nc2c(OCc3c(F)cccc3F)cc(Cl)cn2c1C(=O)NCC(N)C(C)C` (single isomer, unassigned) [Example 212, ent-N-(2-Amino-3-methylbutyl)-6-chloro-8-[(2,6-difluorobenzyl)oxy]-2-methylimidazo[1,2-a]-pyridine-3-carboxamide], the MEC stood at 1.00 µM.
